Data on 1 cell line can be found in the supplement of paper PMC10307832.

Assay in all cases: relative viability (nuclei count vs DMSO), 5 days (fraction); higher = more cells survive
Compound in assay [1]: C1CCC(CC1)N(CCNCCC2=C3C(=C(C=C2)O)NC(=O)CO3)C(=O)CCNCCC4=CC(=C(C=C4)Cl)Cl [AZ505]
The method, boiled down: (§1)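 Viability was read as treated-well nuclei divided by vehicle-well nuclei, using the median across plates. Lung cancer cell lines in 1536-well plates were kept overnight at 37 °C, pinned with five √10-spaced library-drug doses, and after 5 days were Hoechst-stained, imaged at 4× and counted in MetaXpress. Plates passed only with control CV below 25% and at least one doubling.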

Compound in assay [2]: Cn1c(=O)n(-c2ccc(C(C)(C)C#N)cc2)c2c3cc(-c4cnc5ccccc5c4)ccc3ncc21 [Dactolisib]
The method, boiled down: as §1

Compound in assay [3]: C1CCC(CC1)N(CCNCCC2=C3C(=C(C=C2)O)NC(=O)CO3)C(=O)CCNCCC4=CC(=C(C=C4)Cl)Cl [AZ505] + CC(=O)c1c(C)c2cnc(Nc3ccc(N4CCNCC4)cn3)nc2n(C2CCCC2)c1=O [Palbociclib] (partner 0.5 µM)
A digest of the protocol: (§2)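 A single step with final 0.05% Triton X-100, 1% formaldehyde and 1 ug/ml Hoechst fixed the cells and stained nuclei 5 days after treatment. Lung cancer cell lines in 1536-well plates had been treated by pin tool the day after seeding with one drug alone or a fixed anchor-drug dose plus five library-drug doses (not always all listed) in √10 steps, and nuclei were counted on 4× images. Relative viability is the ratio of nuclei in treated wells to nuclei in vehicle wells, taken as the median of duplicate plates.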

Compound in assay [4]: C1CCC(CC1)N(CCNCCC2=C3C(=C(C=C2)O)NC(=O)CO3)C(=O)CCNCCC4=CC(=C(C=C4)Cl)Cl [AZ505] + Cc1cc(Nc2cc(N3CCN(C)CC3)nc(Sc3ccc(NC(=O)C4CC4)cc3)n2)n[nH]1 [Tozasertib] (partner 0.1 µM)
The method, boiled down: as §2

For the cell line UMC-11, the relative viability in assay [1] (0.08 µM) came out at 0.887; in assay [1] (0.253 µM), 0.994; in assay [1] (0.8 µM), 0.94; in assay [1] (2.53 µM), 1.07; in assay [1] (8 µM), 1.03; in assay [2] (0.002 µM), 0.96. Moreover, the relative viability is 0.836 in assay [2] (0.006325 µM); 0.77 in assay [2] (0.02 µM); 0.398 in assay [2] (0.06325 µM); 0.273 in assay [2] (0.2 µM); 0.303 in assay [3] (first compound 0.08 µM); 0.33 in assay [3] (first compound 0.253 µM). Moreover, the relative viability worked out at 0.332 in assay [3] (first compound 0.8 µM); 0.337 in assay [3] (first compound 2.53 µM); 0.321 in assay [3] (first compound 8 µM); 0.189 in assay [4] (first compound 0.08 µM); 0.206 in assay [4] (first compound 0.253 µM); 0.188 in assay [4] (first compound 0.8 µM). Besides, the figures for the relative viability in assay [4] (first compound 2.53 µM) and in assay [4] (first compound 8 µM) were 0.196 and 0.205, respectively.
